According to the supplement of paper PMC10307832:

What was measured:
Test in all cases: relative viability (nuclei count vs DMSO), 5 days (fraction); higher = more cells survive
Dovitinib + Linsitinib = compound: CN1CCN(c2ccc3nc(-c4c(N)c5c(F)cccc5[nH]c4=O)[nH]c3c2)CC1 [Dovitinib] + C[C@]1(O)C[C@@H](c2nc(-c3ccc4ccc(-c5ccccc5)nc4c3)c3c(N)nccn32)C1 [Linsitinib] (partner 1 µM)
How it was run: (§1)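 The day after seeding in 1536-well plates, lung cancer cell lines were treated by pin tool with a single drug, or with a fixed anchor-drug dose together with five library-drug doses (not always all listed) in √10 steps. After 5 days, a combined fix-and-stain solution (final 0.05% Triton X-100, 1% formaldehyde, 1 ug/ml Hoechst) was added. Nuclei counted on 4× images gave relative viability as treated counts over vehicle counts, reported as the median of duplicate plates.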

Dovitinib + Pictilisib = compound: CN1CCN(c2ccc3nc(-c4c(N)c5c(F)cccc5[nH]c4=O)[nH]c3c2)CC1 [Dovitinib] + CS(=O)(=O)N1CCN(Cc2cc3nc(-c4cccc5[nH]ncc45)nc(N4CCOCC4)c3s2)CC1 [Pictilisib] (partner 1 µM)
How it was run: as §1

Dovitinib + Alpelisib = compound: CN1CCN(c2ccc3nc(-c4c(N)c5c(F)cccc5[nH]c4=O)[nH]c3c2)CC1 [Dovitinib] + Cc1nc(NC(=O)N2CCC[C@H]2C(N)=O)sc1-c1ccnc(C(C)(C)C(F)(F)F)c1 [Alpelisib] (partner 2 µM)
How it was run: as §1

Dovitinib + Decitabine = compound: CN1CCN(c2ccc3nc(-c4c(N)c5c(F)cccc5[nH]c4=O)[nH]c3c2)CC1 [Dovitinib] + Nc1ncn([C@H]2C[C@H](O)[C@@H](CO)O2)c(=O)n1 [Decitabine] (partner 2 µM)
How it was run: as §1

| Cell Line | relative viability (Dovitinib + Linsitinib; first compound 0.02 µM) | relative viability (Dovitinib + Linsitinib; first compound 0.06325 µM) | relative viability (Dovitinib + Linsitinib; first compound 0.2 µM) | relative viability (Dovitinib + Linsitinib; first compound 0.6325 µM) | relative viability (Dovitinib + Linsitinib; first compound 2 µM) | relative viability (Dovitinib + Pictilisib; first compound 0.02 µM) | relative viability (Dovitinib + Pictilisib; first compound 0.06325 µM) | relative viability (Dovitinib + Pictilisib; first compound 0.2 µM) | relative viability (Dovitinib + Pictilisib; first compound 0.6325 µM) | relative viability (Dovitinib + Pictilisib; first compound 2 µM) | relative viability (Dovitinib + Alpelisib; first compound 0.02 µM) | relative viability (Dovitinib + Alpelisib; first compound 0.06325 µM) | relative viability (Dovitinib + Alpelisib; first compound 0.2 µM) | relative viability (Dovitinib + Alpelisib; first compound 0.6325 µM) | relative viability (Dovitinib + Alpelisib; first compound 2 µM) | relative viability (Dovitinib + Decitabine; first compound 0.02 µM) | relative viability (Dovitinib + Decitabine; first compound 0.06325 µM) | relative viability (Dovitinib + Decitabine; first compound 0.2 µM) | relative viability (Dovitinib + Decitabine; first compound 0.6325 µM) | relative viability (Dovitinib + Decitabine; first compound 2 µM) |
| --- | --- | --- | --- | --- | --- | --- | --- | --- | --- | --- | --- | --- | --- | --- | --- | --- | --- | --- | --- | --- |
| LU99A | 0.482 | 0.571 | 0.521 | 0.515 | 0.506 | 0.312 | 0.323 | 0.336 | 0.359 | 0.34 | 0.492 | 0.561 | 0.43 | 0.461 | 0.559 | 0.759 | 0.762 | 0.965 | 0.981 | 0.904 |
| HCC-366 | 0.645 | 0.584 | 0.549 | 0.665 | 0.592 | 0.172 | 0.123 | 0.159 | 0.137 | 0.186 | 0.545 | 0.393 | 0.478 | 0.505 | 0.446 | 0.341 | 0.363 | 0.362 | 0.317 | 0.378 |
| EKVX | 1.01 | 1.05 | 1 | 1.02 | 0.978 | 0.451 | 0.366 | 0.462 | 0.506 | 0.463 | 0.889 | 0.848 | 0.901 | 0.942 | 0.946 | 0.388 | 0.399 | 0.348 | 0.339 | 0.286 |
| NCI-H522 | – | – | – | – | – | – | – | – | – | – | – | – | – | – | – | 0.651 | 0.647 | 0.665 | 0.727 | 0.785 |
| NCI-H1755 | 0.968 | 0.976 | 0.94 | 1.01 | 0.998 | 0.494 | 0.399 | 0.465 | 0.452 | 0.46 | 0.951 | 0.916 | 0.923 | 0.903 | 0.878 | 0.679 | 0.736 | 0.756 | 0.723 | 0.677 |
| NCI-H647 | 1.1 | 1.15 | 1.16 | 1.06 | 1.27 | 0.285 | 0.413 | 0.457 | 0.414 | 0.419 | 0.966 | 1.15 | 1.34 | 1.19 | 0.961 | 0.402 | 0.438 | 0.444 | 0.303 | 0.387 |
| LC-2-ad | 0.798 | 0.919 | 0.84 | 0.782 | 0.773 | 0.535 | 0.463 | 0.446 | 0.439 | 0.36 | 0.873 | 0.833 | 0.728 | 0.8 | 0.74 | 0.777 | 0.815 | 0.711 | 0.795 | 0.774 |
| NCI-H1793 | 0.964 | 0.679 | 0.856 | 0.754 | 0.834 | 0.395 | 0.282 | 0.419 | 0.375 | 0.31 | 0.928 | 0.601 | 0.88 | 0.831 | 0.623 | 0.548 | 0.602 | 0.567 | 0.446 | 0.498 |
| HCC-827 | 0.895 | 0.97 | 0.959 | 0.928 | 0.898 | 0.932 | 0.942 | 1.07 | 0.963 | 1.01 | 0.931 | 0.926 | 0.918 | 0.987 | 1.03 | 0.308 | 0.353 | 0.324 | 0.336 | 0.338 |
